Literature values as cited in patent publication US12064484B2, “Compositions for introducing RNA into cells” (ETHRIS GMBH, priority 2013, dated 2024).

Test system: cell culture
Details: cholesterol-polyamine carbamates

| SMILES | reporter gene expression (beta galactosidase plasmid DNA) |
| --- | --- |
| CC(C)CCCC(C)C1CCC2C3CC=C4CC(OC(=O)NCCCNCCCCNCCCN)CCC4(C)C3CCC12C (centres unmarked) [propyl/butyl/propyl] | by far the highest reporter gene expression |
| CC(C)CCCC(C)C1CCC2C3CC=C4CC(OC(=O)NCCNCCCNCCN)CCC4(C)C3CCC12C (centres unmarked) [ethyl/propyl/ethyl] | three- to tenfold less efficient |
